Test results taken from PubChem BioAssay AID1963863 (Molecular Pharmacology Branch, DTP, NCI, 2024).

Tested on: 931267-113-T-J1-PDC KRAS spheroid with HUVEC/MSC, viability
Assay: Anticancer human tumor 931267-113-T-J1-PDC patient-derived colon adenocarcinoma cell line growth inhibition [KRAS2]
Settings: for IC50: curve of first compound; for viability, T/C: stronger effect = lower value
Excerpt: Multicellular complex tumor spheroid response to RAS pathway inhibitors in combination with a targeted agents in patient-derived cell lines with oncogenic KRAS variants from multiple cancer types
A high-throughput screen of multi-cell type tumor spheroids was designed to identify active combinations of targeted small molecules and KRAS pathway inhibitors. Complex spheroids include a stromal component modeled by human endothelial cells (HUVEC) and fibroblasts modeled by human mesenchymal stem cells (MSCs). The concentration ranges selected for each drug and investigational agent were based upon clinically achievable concentrations if the clinical Cmax of the agent was known.
Compounds. The drugs and investigational agents: BI-3406 (NSC825286), BAY-293 (NSC824723), batoprotafib (TNO155; NSC825523), sotorasib (AMG 510; NSC818433), MRTX1257 (NSC819558), elimusertib (BAY 1895344; NSC800525), molibresib (GSK525762; NSC774829), temuterkib (LY3214996; NSC803410), venetoclax (NSC766270), alisertib (NSC759677), olaparib (NSC753686), talazoparib (NSC767125), erdafitinib (NSC781556), ipatasertib (NSC767898), cabozantinib (NSC761068), nintedanib (NSC756659), abemaciclib (NSC768073), docetaxel (NSC628503), trametinib (NSC758246), and sapanisertib (NSC764658) were obtained from the National Cancer Institute (NCI) Developmental Therapeutics Program Chemical Repository. The FDA-approved anticancer drug set is available from the Developmental Therapeutics Program. […] The stock solutions were prepared in dimethyl sulfoxide (DMSO, Sigma-Aldrich, St. Louis, MO, cat. D2650) at 800-fold the tested concentration and stored at -70 degrees C prior to their use. All drugs and investigational agents were tested over a range starting from a high concentration at or near the clinical Cmax and decreasing in half-log increments. If the clinical Cmax for an agent had not been determined, the highest concentration tested was 10 microM.
Cell Culture. All cells were maintained in an incubator at 37 degrees C and 5% CO2 with 95% humidity. The PDC lines were cultured according to standard operating procedures established by the NCI PDMR (https://pdmr.cancer.gov/sops/default.htm). Briefly, all PDCs were thawed and cultured in Matrigel-coated flasks prepared with a working solution of 1X Ham's F-12 nutrient mix, without supplementation (Invitrogen, Waltham, MA, cat. 11765054), 100 U/mL penicillin-streptomycin (Invitrogen, cat. 15140122), and 2.5% Matrigel (Corning Inc., Corning, NY, cat. 354248) for the first three passages. All PDCs were cultured in complete DMEM/F-12 media containing advanced DMEM/F-12 (Invitrogen, cat. 12634028), 4.9% defined fetal bovine serum, heat inactivated (HyClone Laboratories Inc., Logan, UT, cat. SH30070.03HI), 389 ng/mL hydrocortisone (Sigma-Aldrich, cat. H4001), 9.7 ng/mL human EGF recombinant protein (Invitrogen, cat. PHG0313), 23.4 microg/mL adenine (Sigma-Aldrich, cat. A2786), 97.3 U/mL penicillin-streptomycin (Invitrogen, cat. 15140122), 1.9 mM L-glutamine (Invitrogen, cat. 25030081), and 9.7 microM Y-27632 dihydrochloride (Tocris Bioscience, Bristol, United Kingdom, cat. 1254). The PDCs were cultured in complete DMEM/F12 media without 9.7 microM Y-27632 dihydrochloride for at least two passages prior to the screen. The established cell line HOP-62 was cultured in RPMI 1640 medium, HEPES (Invitrogen, cat. 22400105) with 10% defined fetal bovine serum (HyClone Laboratories Inc., cat. SH30070.03) and 2 mM L-glutamine (Invitrogen, cat. 25030081). The pooled donor HUVEC were cultured in endothelial cell growth medium 2 (PromoCell, Heidelberg, Germany, cat. C-22011) and the hMSC were cultured in mesenchymal stem cell growth medium 2 (PromoCell, cat. C-28009). For all experiments, HUVEC and hMSC were used at passages </=5, while the malignant cell lines were used at passages </=15. […]

[1] = second compound 0.1 µM, first compound 0.0316 µM
[2] = second compound 0.1 µM, first compound 0.1 µM
[3] = second compound 0.316 µM, first compound 0.0316 µM
[4] = second compound 0.316 µM, first compound 0.1 µM
[5] = second compound 1 µM, first compound 0.0316 µM
[6] = second compound 1 µM, first compound 0.1 µM
[7] = second compound 3.16 µM, first compound 0.0316 µM
[8] = second compound 3.16 µM, first compound 0.1 µM
[9] = second compound 10 µM, first compound 0.0316 µM
[10] = second compound 10 µM, first compound 0.1 µM
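Note: compound exposure lasted 7 days before the readout.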
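Throughout, for viability, T/C: 100% = DMSO vehicle control viability.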

In the case of CC(C)n1nc(-c2ccc3oc(N)nc3c2)c2c(N)ncnc21 + C=CC(=O)N1CCN(c2nc(=O)n(-c3c(C)ccnc3C(C)C)c3nc(-c4c(O)cccc4F)c(F)cc23)C(C)C1, the IC50 (second compound 0.1 µM) is reported as 10.8 nM, the IC50 (second compound 0.316 µM) is reported as 9.04 nM and the IC50 (second compound 1 µM) is reported as 7.94 nM. The IC50 (second compound 3.16 µM) was 9.47 nM, the IC50 (second compound 10 µM) was 8.24 nM and the viability, T/C (second compound 0.1 µM, first compound 0.000316 µM) was 106%. It also gave a viability, T/C (second compound 0.1 µM, first compound 0.001 µM) of 89.4%, a viability, T/C (second compound 0.1 µM, first compound 0.00316 µM) of 83.5% and a viability, T/C (second compound 0.1 µM, first compound 0.01 µM) of 48.2%. It also gave a viability, T/C [1] of 34.3%, a viability, T/C [2] of 26.7% and a viability, T/C (second compound 0.316 µM, first compound 0.000316 µM) of 116%. For the same compound, the viability, T/C (second compound 0.316 µM, first compound 0.001 µM) was 75.7%, the viability, T/C (second compound 0.316 µM, first compound 0.00316 µM) was 77.4% and the viability, T/C (second compound 0.316 µM, first compound 0.01 µM) was 44.8%. For the same compound, the viability, T/C [3] was 33.6%, the viability, T/C [4] was 27.2% and the viability, T/C (second compound 1 µM, first compound 0.000316 µM) was 100%. The viability, T/C (second compound 1 µM, first compound 0.001 µM) was 117%, the viability, T/C (second compound 1 µM, first compound 0.00316 µM) was 87.6% and the viability, T/C (second compound 1 µM, first compound 0.01 µM) was 41.2%. The viability, T/C [5] was 27.9%, the viability, T/C [6] was 25.1% and the viability, T/C (second compound 3.16 µM, first compound 0.000316 µM) was 108%. For the same compound, the viability, T/C (second compound 3.16 µM, first compound 0.001 µM) was 94.4%, the viability, T/C (second compound 3.16 µM, first compound 0.00316 µM) was 95.6% and the viability, T/C (second compound 3.16 µM, first compound 0.01 µM) was 47.1%. The viability, T/C [7] was 28.9%, the viability, T/C [8] was 22.3% and the viability, T/C (second compound 10 µM, first compound 0.000316 µM) was 101%. It also gave a viability, T/C (second compound 10 µM, first compound 0.001 µM) of 86.4%, a viability, T/C (second compound 10 µM, first compound 0.00316 µM) of 69.7% and a viability, T/C (second compound 10 µM, first compound 0.01 µM) of 48.4%. It also gave a viability, T/C [9] of 25.1% and a viability, T/C [10] of 22%.
With CC1(C)CCC(CN2CCN(c3ccc(C(=O)NS(=O)(=O)c4ccc(NCC5CCOCC5)c([N+](=O)[O-])c4)c(Oc4cnc5[nH]ccc5c4)c3)CC2)=C(c2ccc(Cl)cc2)C1 + C=CC(=O)N1CCN(c2nc(=O)n(-c3c(C)ccnc3C(C)C)c3nc(-c4c(O)cccc4F)c(F)cc23)C(C)C1 the IC50 (second compound 0.1 µM) was 2240 nM, the IC50 (second compound 0.316 µM) was 1820 nM and the IC50 (second compound 1 µM) was 1990 nM. It also gave an IC50 (second compound 3.16 µM) of 2120 nM, an IC50 (second compound 10 µM) of 1770 nM and a viability, T/C [1] of 107%. It also gave a viability, T/C [2] of 85%, a viability, T/C (second compound 0.1 µM, first compound 0.316 µM) of 84.2% and a viability, T/C (second compound 0.1 µM, first compound 1 µM) of 103%. For the same compound, the viability, T/C (second compound 0.1 µM, first compound 3.16 µM) was 30.8%, the viability, T/C (second compound 0.1 µM, first compound 10 µM) was 5.11% and the viability, T/C [3] was 86.8%. It also gave a viability, T/C [4] of 102%, a viability, T/C (second compound 0.316 µM, first compound 0.316 µM) of 96.8% and a viability, T/C (second compound 0.316 µM, first compound 1 µM) of 71.6%. It also gave a viability, T/C (second compound 0.316 µM, first compound 3.16 µM) of 29.5%, a viability, T/C (second compound 0.316 µM, first compound 10 µM) of 10.2% and a viability, T/C [5] of 86.5%. For the same compound, the viability, T/C [6] was 104%, the viability, T/C (second compound 1 µM, first compound 0.316 µM) was 79.9% and the viability, T/C (second compound 1 µM, first compound 1 µM) was 91.7%. For the same compound, the viability, T/C (second compound 1 µM, first compound 3.16 µM) was 22.5%, the viability, T/C (second compound 1 µM, first compound 10 µM) was 2.37% and the viability, T/C [7] was 76.4%. It also gave a viability, T/C [8] of 98%, a viability, T/C (second compound 3.16 µM, first compound 0.316 µM) of 109% and a viability, T/C (second compound 3.16 µM, first compound 1 µM) of 99%. It also gave a viability, T/C (second compound 3.16 µM, first compound 3.16 µM) of 25.7%, a viability, T/C (second compound 3.16 µM, first compound 10 µM) of 8.95% and a viability, T/C [9] of 98.5%. It also gave a viability, T/C [10] of 75.2%, a viability, T/C (second compound 10 µM, first compound 0.316 µM) of 83.1% and a viability, T/C (second compound 10 µM, first compound 1 µM) of 76.5%. The viability, T/C (second compound 10 µM, first compound 3.16 µM) was 23.1% and the viability, T/C (second compound 10 µM, first compound 10 µM) was 3.34%.
